# Tests used:
# Format in all cases: in vivo
# [1] = tested on: corn (Pioneer 3876); assay: Clomazone injury and dietholate safening of corn, variety Pioneer 3876; conditions: 14 days
# Protocol: (§1) The compounds and compositions of the present invention were tested as water/surfactant solutions on two corn varieties (Pioneer 3733 and Pioneer 3876) and one variety (DPL 61) of cotton. In one embodiment, the safening compound and herbicidal compound were sprayed in admixture as a tank mix onto flats of corn or cotton seeds arranged in a randomized, block design. In another embodiment, the safening compound was applied to the plant seeds by placing the safening compound and the plant seeds in a screw-capped jar, which was rolled on its side until dispersion of the safening compound was complete. Optionally, a sticker compound, for example, without limitation, water or carboxymethylcellulose, can be used to adhere the safening compound to the plant seeds. The treated plant seeds were planted and immediately sprayed with herbicidal compound as described hereinabove. There were four replicates for each rate of application. The emerging corn and cotton plants were maintained in a growth chamber for 14 days after which time they were evaluated for percent injury as compared to an untreated control.
# [2] = tested on: corn (Pioneer 3733); assay: Clomazone injury and dietholate safening of corn, variety Pioneer 3733; conditions: 14 days
# Protocol: as §1
# [3] = tested on: cotton (DPL 61); assay: Clomazone injury and dietholate safening of cotton, growth chamber, percent injury vs untreated control; conditions: for Percent Injury: 14 days
# Protocol: as §1
# [4] = tested on: two corn varieties (Pioneer 3733 and Pioneer 3876); assay: Clomazone injury and dietholate safening of corn, both varieties together; conditions: clomazone without the safening compound dietholate
# Protocol: as §1, with “control. […]” for “control.”
compound,measurement,setting,value
"CC1(C)CON(Cc2ccccc2Cl)C1=O [Clomazone, 2-[(2-chlorophenyl)methyl]-4,4-dimethyl-3-isoxazolidinone]",Percent Injury,[1]; clomazone 0.06 kg/ha alone,1%
same,Percent Injury,[1]; clomazone 0.12 kg/ha alone,15%
same,Percent Injury,[1]; clomazone 0.24 kg/ha alone,59%
same,Percent Injury,[2]; clomazone 0.06 kg/ha alone,2%
same,Percent Injury,[2]; clomazone 0.12 kg/ha alone,28%
same,Percent Injury,[2]; clomazone 0.24 kg/ha alone,75%
same,Percent Injury,[3]; clomazone 0.25 kg/ha alone,46%
same,Percent Injury,[3]; clomazone 0.50 kg/ha alone,77%
same,Percent Injury,[3]; clomazone 1.0 kg/ha alone,91%
same,injury to cotton (in words),[3]; clomazone without the safening compound dietholate,significant injury
same,injury to corn (in words),[4],significant injury
